Experimental data taken from patent US20160033480A1, “Immunovir and Components, Immunovir A, B, C, D Utility and Useful Processes” (priority 2013, published 2016).

How the values were obtained:
cRBC = experiment: Hemagglutination activity; assay type: cell-based, chicken; settings: 0.4% v/v cRBC, room temperature, 2 hours
Method: Immunovir A, B, C, and D, or concanavalin A with different concentrations were added into 2 mL of normal saline 0.4% v/v cRBC suspension in Kahn tube. The solution was mixed thoroughly and kept at room temperature for 2 hours to observe hema-agglutination.

mMφ/Mo = experiment: Effect on mice macrophages/mononuclear cells activities in vivo after CP immunosuppression; settings: immunovirs 10 mg/kg or AZT 20 mg/kg via tail vein day 2 to 5; CP-treated mice; FIG. 5
Method: Two mice of each group were injected with 10 mg/kg.b.w of immunovir (O, mixture), immunovir A, B, C, D, or 20 mg/kg.b.w of AZT via tail vein in the afternoon from day 2 to day 5, respectively. Each mouse's abdominal cavity was injected with 0.5 mL of RTAC in the afternoon of day 5, and mMφ/Mo were collected from each mouse's abdominal cavity with 10 mL of R7 1⁄2C in the afternoon of day 6. Basal medium rich in deposit cells were taken, and 0.40 mL was pipetted into two wells of flat-bottomed 24-well Falcon culture dish. After incubation with 5% CO2 for 6 hours, 0.10 mL of cRBC (1%) was added into each well and incubation was carried out for 6 hours or overnight. Then suspended cells, i.e., cRBC, were sucked out, the well was gently washed with 0.5 mL of RPMI 1640, and 0.40 mL of RBMI 1640 and 5 ul of Liu Stain B solution were added again to stain mMφ, whereas cRBCs were unstainable. CP immuno suppression was removed by Immunovir(mix), Immunovir […]. but not AZT in mouse's body, and the efficacy of Mφ/Mo activity increased as shown in FIG. 5.

HIV1 = experiment: Anti-HIV1 activity in human venous blood mononuclear cells (HIV1P24 expression); assay type: cell-based; settings: 21 days culture; FIG. 6
Method: Mononuclear cells derived from human venous blood (1×10^7 cells/0.80 mL) were suspended in capped Greiner incubation tube with R20C containing 40 ug/mL rIL-2, and 0.10 mL of immunovir (40 ug/mL or diluted with 4 fold) or, as a comparison, AZT (100, 10, or 1 ug/mL), then incubated in 5% CO2 incubator at 36-37° C. for 21 days.
Cells were precipitated by centrifugation (250 g, 5 minutes) every 3 days, and culture medium were replaced to fresh ones with identical ingredients. For antigen expression, cells were stained by mouse anti-HIV1P24 IgG1 and rabbit anti-mouse IgG1-FITC.
The percentage of cells with HIV1P24 gag gene expression, i.e., the ratio of fluorescent cells detected by indirect fluorescent antibody technique was calculated.

[1] = test system: guinea pig peritoneal derived adherent macrophages (gMφ); experiment: Effect on cellular immunity in vitro: gMφ killer cell activity against cRBC with or without cyclophosphamide; assay type: cell-based; settings: second 20-hours incubation without CP; FIG. 4-1
Excerpt: The effector (killer) cells for this experiment were adherent macrophages (gMφ) derived from guinea pig's peritoneal fluid cultured with RTAG (RPMI 1640 enriched with 7.5% v/v guinea pig serum). Cyclophosphamide (CP) was used as an immunosuppressive agent. Chicken red blood cells (cRBC) as target cells.
The experiment consisted of four series of experiments: gMφ+cRBC, gMφ+Imm+cRBC, gMφ+CP+cRBC, and gMφ+CP+Imm+cRBC, and immunovir (Imm) as immune response modifier.
A 200 to 250 g guinea pig was injected with 1 mL of thioglycolate medium, after 20 hours adherent macrophages derived from abdominal cavity (gMφ) were collected by aid of RPMI 1640, suspended in RTAG, then 0.9 mL of solution was pipetted into thirteen Falcon 12-well culture plates. The plates for group 1 and 2 to group 4 were 1 and 3, respectively. […] In other words, each well was filled with 1 ug/mL CP in group 2, 10 ug/mL in group 3, and 100 ug/mL in group 4. After incubation in a 5% CO2 incubator (35-37° C.), the medium in each well was replaced with fresh R7½G from group 1 (only 1 plate for control) to group 4. Then Imm was added from lane 1 to lane 4 (3 wells per lane) that the final concentration were 0, 0.1, 1, and 10 ug/mL, respectively. That was to say, from group 2 to group 4, lane 1 was a CP control, and lane 1 in plate 1 was gMφ control. […]

Yac-1 cells = experiment: Mononuclear killer cell activity derived from mouse's spleen (51Cr release from Yac-1 cells); assay type: in vivo, BALB/c mice; settings: CP 200 and 100 mg/kg day 1 and 2; immunovir 10 mg/kg every day; spleens day 7
Method: Twenty male BALB/c mice aged 8 weeks were divided into group A, B, C, and D. Mice in group A were injected with 0.20 mL of normal saline intravenously. […] Group C received immunovir 10 mg/kg.b.w every day. Group D received CP as group B and immunovir as Group C. All mice's spleens were excised at day 7 and spleen-derived mononuclear cells were isolated by Ficol-paque centrifugation.
Yac-1 cells (2×10^6/mL) were labeled with R20C containing 1 uc/mL of ^51Cr-chromate for 60 minutes at 37° C.
Mouse's spleen-derived mononuclear cells (killer cells) (3×10^6) and ^51Cr-chromate-labeled Yac-1 cells (6×10^6) were suspended altogether in 1.0 mL of R20C medium and incubated at 37° C. for 150 minutes, centrifuged with 250 g for 10 minutes, then 0.50 mL of supernatant was taken and dried in the bottle.
Radioactivity was measured by liquid scintillation and toluene-PPO-POPOP was used as a scintillant.

[2] = Bioactivity of separated immunovir components (test not specified)

concanavalin A
nature of hema-agglutination of cRBC (resuspension by shaking) (cRBC): firmly agglutinated with concanavalin A and could not be resuspended by shaking

Cc1cn([C@H]2C[C@H](N=[N+]=[N-])[C@@H](CO)O2)c(=O)[nH]c1=O [AZT]
removal of CP immuno suppression in mouse's body (Mφ/Mo activity) (mMφ/Mo): not
anti-HIV1 activities compared (HIV1): approximately the same

O=P1(N(CCCl)CCCl)NCCCO1 (stereo not drawn) [CP, Cyclophosphamide]
activity of gMφ after removal of CP [1]: unrecoverable
radioactivity released (51Cr from Yac-1 cells) (Yac-1 cells): inhibited

CO[C@H]1O[C@H](CO)[C@@H](O)[C@H](O)[C@@H]1O [methyl-a-mannopyranoside]
bioactivity [2]: low bioactivity
